# Biological target: Mitogen-activated protein kinase 10/Receptor-interacting serine/threonine-protein kinase 1 (Homo sapiens) (UniProt P53779+Q13546)
# Experiment: Ratio of necrostatin-21 EC50 to compound EC50 for RIP1/JNK2 (unknown origin)-mediated necrosis
# Type: protein assay
# Chain of Mitogen-activated protein kinase 10/Receptor-interacting serine/threonine-protein kinase 1 (Homo sapiens) (P53779 whole entry, looked up): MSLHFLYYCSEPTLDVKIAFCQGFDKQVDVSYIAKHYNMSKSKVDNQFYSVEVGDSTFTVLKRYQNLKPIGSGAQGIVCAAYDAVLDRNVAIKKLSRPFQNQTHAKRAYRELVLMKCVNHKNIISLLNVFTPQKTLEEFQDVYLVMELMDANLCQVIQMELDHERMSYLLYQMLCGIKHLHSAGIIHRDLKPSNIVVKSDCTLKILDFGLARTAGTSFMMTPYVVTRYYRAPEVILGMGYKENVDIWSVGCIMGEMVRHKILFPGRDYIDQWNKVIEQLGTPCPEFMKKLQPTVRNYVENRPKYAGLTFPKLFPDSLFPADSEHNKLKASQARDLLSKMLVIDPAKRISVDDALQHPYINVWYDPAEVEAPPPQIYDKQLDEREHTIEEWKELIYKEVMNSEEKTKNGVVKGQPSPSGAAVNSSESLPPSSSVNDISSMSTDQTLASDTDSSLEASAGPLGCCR
# Chain of Mitogen-activated protein kinase 10/Receptor-interacting serine/threonine-protein kinase 1 (Homo sapiens) (Q13546 whole entry, looked up): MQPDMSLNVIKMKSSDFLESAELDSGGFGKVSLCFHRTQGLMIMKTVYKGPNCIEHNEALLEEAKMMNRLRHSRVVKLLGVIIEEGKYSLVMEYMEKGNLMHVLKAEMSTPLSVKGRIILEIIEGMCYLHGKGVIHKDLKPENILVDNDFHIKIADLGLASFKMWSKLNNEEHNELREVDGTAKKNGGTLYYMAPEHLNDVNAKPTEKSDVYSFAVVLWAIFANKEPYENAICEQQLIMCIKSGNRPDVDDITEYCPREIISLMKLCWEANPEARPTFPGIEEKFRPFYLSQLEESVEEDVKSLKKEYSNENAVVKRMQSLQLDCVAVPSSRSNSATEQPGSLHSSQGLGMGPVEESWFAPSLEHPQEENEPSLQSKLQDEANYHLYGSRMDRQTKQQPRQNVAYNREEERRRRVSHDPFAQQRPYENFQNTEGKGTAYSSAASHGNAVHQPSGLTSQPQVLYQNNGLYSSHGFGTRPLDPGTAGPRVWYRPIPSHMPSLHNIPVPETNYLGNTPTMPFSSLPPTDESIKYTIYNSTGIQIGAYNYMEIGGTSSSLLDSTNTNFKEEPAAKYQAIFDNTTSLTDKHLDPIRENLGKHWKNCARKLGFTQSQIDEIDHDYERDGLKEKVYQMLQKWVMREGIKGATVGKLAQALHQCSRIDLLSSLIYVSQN
row,SMILES,Ratio EC50
1,COc1cc2[nH]c3c(c2cc1C#N)CCc1c[nH]nc1-3,> 35

# Biological target: not listed separately
# Experiment: Inhibition of RIP1/JNK2 (unknown origin)-mediated necrosis
row,SMILES,EC50 [nM]
1,Cc1cccc2c3c([nH]c12)-c1n[nH]cc1CC3,760
2,N#Cc1ccc2[nH]c3c(c2c1)CCc1c[nH]nc1-3,80
3,Fc1cccc2c3c([nH]c12)-c1n[nH]cc1CC3,860
4,CCc1ccc2[nH]c3c(c2c1)CCc1c[nH]nc1-3,780
5,COc1cc(OC)c2c3c([nH]c2c1)-c1n[nH]cc1CC3,110
6,c1[nH]nc2c1CCc1c-2[nH]c2cc3c(cc12)OCCO3,2640
7,COc1cc2[nH]c3c(c2cc1OC)CCc1c[nH]nc1-3,47
8,N#Cc1ccc2c3c([nH]c2c1)-c1n[nH]cc1CC3,110
9,Clc1cccc2[nH]c3c(c12)CCc1c[nH]nc1-3,670
10,COc1cc2[nH]c3c(c2cc1C#N)CCc1c[nH]nc1-3,14
11,c1ccc2c3c([nH]c2c1)-c1n[nH]cc1C3,5790
12,c1ccc2c(c1)[nH]c1c2ccc2c[nH]nc21,3620
13,CC1Cc2c([nH]c3ccccc23)-c2n[nH]cc21 (configuration not stated),810
14,c1[nH]nc2c1CCc1c-2[nH]c2cc3c(cc12)OCO3,150
15,COc1cccc2[nH]c3c(c12)CCc1c[nH]nc1-3,1450
16,O=[N+]([O-])c1cccc2c3c([nH]c12)-c1n[nH]cc1CC3,6320
17,COc1ccc2[nH]c3c(c2c1)CCc1c[nH]nc1-3,170
18,COc1ccc2c3c([nH]c2c1)-c1n[nH]cc1CC3,100
19,FC(F)(F)c1ccc2c3c([nH]c2c1)-c1n[nH]cc1CC3,250
20,Fc1ccc2[nH]c3c(c2c1)CCc1c[nH]nc1-3,140
21,Clc1ccc2c3c([nH]c2c1)-c1n[nH]cc1CC3,250
